Structures are written as SMILES.

The target in the assay is T1, Human ENaC δ, β and γ subunit (Homo sapiens, UniProt P51168+P51170+P51172).
T1 construct: expressed in transfected cells; host or cells: Xenopus laevis (African clawed frog) oocytes injected with cRNA
T1 sequence (P51172 1-802): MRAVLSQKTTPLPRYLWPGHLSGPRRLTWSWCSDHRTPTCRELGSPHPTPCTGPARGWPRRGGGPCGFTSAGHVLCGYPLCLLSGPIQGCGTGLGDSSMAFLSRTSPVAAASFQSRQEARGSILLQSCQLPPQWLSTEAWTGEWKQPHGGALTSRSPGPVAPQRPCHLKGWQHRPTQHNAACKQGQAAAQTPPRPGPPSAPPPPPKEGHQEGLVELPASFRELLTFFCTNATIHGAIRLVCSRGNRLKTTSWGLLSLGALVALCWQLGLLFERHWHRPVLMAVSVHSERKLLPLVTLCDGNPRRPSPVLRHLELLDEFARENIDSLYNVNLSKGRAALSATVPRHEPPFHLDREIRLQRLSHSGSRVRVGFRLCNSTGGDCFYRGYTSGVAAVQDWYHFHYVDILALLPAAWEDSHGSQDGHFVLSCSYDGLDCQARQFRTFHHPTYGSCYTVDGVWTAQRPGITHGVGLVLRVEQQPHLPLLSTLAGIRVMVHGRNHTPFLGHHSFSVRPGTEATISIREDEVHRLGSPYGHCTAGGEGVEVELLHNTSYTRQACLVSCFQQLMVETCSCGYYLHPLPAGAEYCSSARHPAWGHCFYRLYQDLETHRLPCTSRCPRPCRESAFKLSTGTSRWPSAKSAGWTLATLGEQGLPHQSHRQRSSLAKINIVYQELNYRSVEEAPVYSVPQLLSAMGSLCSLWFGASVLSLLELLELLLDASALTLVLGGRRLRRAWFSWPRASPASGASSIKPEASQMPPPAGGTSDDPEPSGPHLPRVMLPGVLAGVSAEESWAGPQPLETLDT
T1 sequence (P51168 1-640): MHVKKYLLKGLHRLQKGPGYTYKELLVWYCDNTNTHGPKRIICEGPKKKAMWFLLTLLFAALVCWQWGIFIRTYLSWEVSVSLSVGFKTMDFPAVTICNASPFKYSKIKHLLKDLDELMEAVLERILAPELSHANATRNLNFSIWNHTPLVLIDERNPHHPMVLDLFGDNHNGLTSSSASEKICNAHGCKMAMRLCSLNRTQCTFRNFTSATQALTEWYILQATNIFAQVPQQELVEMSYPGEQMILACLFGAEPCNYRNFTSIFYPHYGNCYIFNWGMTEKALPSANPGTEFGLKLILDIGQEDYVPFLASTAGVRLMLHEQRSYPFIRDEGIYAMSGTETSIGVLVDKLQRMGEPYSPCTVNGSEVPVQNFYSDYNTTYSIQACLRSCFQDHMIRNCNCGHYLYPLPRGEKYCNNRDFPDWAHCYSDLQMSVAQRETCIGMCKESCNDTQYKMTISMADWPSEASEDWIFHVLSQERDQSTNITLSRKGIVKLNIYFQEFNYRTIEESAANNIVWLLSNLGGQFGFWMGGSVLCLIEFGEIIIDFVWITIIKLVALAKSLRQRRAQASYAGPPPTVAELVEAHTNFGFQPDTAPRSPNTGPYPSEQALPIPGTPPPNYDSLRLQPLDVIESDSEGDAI
T1 sequence (P51170 1-649): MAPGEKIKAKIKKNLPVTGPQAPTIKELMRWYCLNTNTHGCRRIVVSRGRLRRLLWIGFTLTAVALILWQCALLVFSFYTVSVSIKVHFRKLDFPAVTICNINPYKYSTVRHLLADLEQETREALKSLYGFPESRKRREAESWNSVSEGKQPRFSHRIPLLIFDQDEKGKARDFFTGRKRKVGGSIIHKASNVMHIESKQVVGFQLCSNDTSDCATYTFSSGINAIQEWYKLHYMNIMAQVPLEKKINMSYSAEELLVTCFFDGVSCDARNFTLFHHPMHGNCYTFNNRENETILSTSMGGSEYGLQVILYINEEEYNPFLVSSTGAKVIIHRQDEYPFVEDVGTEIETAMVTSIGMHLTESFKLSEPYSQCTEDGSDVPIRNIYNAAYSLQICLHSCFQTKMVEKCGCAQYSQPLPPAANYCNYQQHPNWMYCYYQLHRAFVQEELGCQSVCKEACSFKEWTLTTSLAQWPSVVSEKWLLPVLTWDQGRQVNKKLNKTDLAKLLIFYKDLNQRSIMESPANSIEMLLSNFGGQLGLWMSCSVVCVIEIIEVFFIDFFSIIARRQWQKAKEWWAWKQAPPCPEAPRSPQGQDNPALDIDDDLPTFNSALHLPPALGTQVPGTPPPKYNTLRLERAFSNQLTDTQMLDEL
Nature of the assay: Measurement of ENaC activation potency (MED) in ENaC-expressing oocyte, Two Electrode Voltage Clamp. Type of assay: cell-based. The following applies: minimum effective dose at which current started to increase; ENaC-expressing African clawed frog oocyte; smaller MED = higher ENaC activation potency. The protocol: ENaC activation current value, namely, the inward current in ENaC-expressing oocyte was measured as follows.
According to the method described in Motonao Nakamura, Takao Shimizu: Experiment of African clawed frog oocyte, Experimental Medicine Vol. 11, No. 3, 224-232 (1993), oocyte was collected from African clawed frog, […], and the current value was measured by a Two Electrode Voltage Clamp technique. In the present invention, ND96 (96 mM NaCl, 2 mM KCl, 1 mM MgCl2, 5 mM Hepes, 1.8 mM CaCl2, pH 7.6) was used instead of MBS buffer in the above-mentioned document. Injector NANOLITER 2000 manufactured by World Precision Instruments was used for microinjection, OpusXpress 6000A manufactured by Molecular Devices was used for current value measurement by a Two Electrode Voltage Clamp technique, and Clampfit 10.2 software manufactured by Molecular Devices was used for data analysis.
Human ENaC δ, β and γ subunit genes shown by SEQ ID NOs: 1, 2 and 3, respectively, in the Sequence Listing were each cloned into a plasmid vector, and used as a template DNA for cRNA synthesis. cRNA was synthesized using MEGAscript kit manufactured by Ambion and according to the method of the manual of the manufacturer.
A mixture of the same amount of ENaC […] cRNA (0.4 to 0.8 μg/μL), and β and γ subunits cRNA (0.4 μg/μL) was injected into the oocyte of African clawed frog at […] per oocyte, and the oocyte was cultured for 16 hr-72 hr. Thereafter, the oocyte was set on a measuring apparatus OpusXpress 6000A, the electrodes were inserted into the oocyte, the voltage was clamped at a level lower by −30 mV than the resting membrane potential by a Two Electrode Voltage Clamp technique, and the current value was measured.
To measure the ENaC activation potency, oocyte was stimulated with each test compound, and the minimum effective dose (hereinafter to be abbreviated as MED) of the compound at the time point when the electric current started to increase was measured. In this case, whichever smaller value of the minimum effective dose of the stimulation compound that increased the current value by not less than 10%, and the minimum effective concentration of the compound that increased, by not less than 25%, the electric current increase value due to the stimulation by 5 μM capsazepine (CAS NO.: 138977-28-3), as compared to the current value before addition of the compound and without stimulation, was taken as MED. A smaller MED means higher ENaC activation potency.
Each test compound was directly dissolved in ND96, or first dissolved in dimethyl sulfoxide (DMSO) to 100 mM, and then prepared by diluting the solution with ND96 to a concentration used for the evaluation. The concentration of the test compound in ND96 was prepared to various concentrations within the range of 0.1 nM to 300 μm.
ND96 as a perfusion fluid was flown at a rate of 0.5 mL/min through the measuring apparatus OpusXpress 6000A on which ENaC-expressing oocyte was set, the perfusion fluid was temporarily stopped every 3 minutes to add a test compound solution (0.25 mL) dissolved in ND96 at a rate of 0.5 mL/min. In this way, the test compound was contacted with ENaC-expressing oocyte, and whether ENaC is activated by the compound was examined by measuring the current value. After addition of the test compound, feeding of the perfusion fluid was resumed to wash away the compound to be ready for the next addition of the compound.
The compound was added successively from a low concentration to a high concentration to stimulate ENaC-expressing oocyte. The concentrations actually added was, for example, 1 nM, 3 nM, 10 nM, 30 nM, 100 nM, 300 nM; 1 μM, 3 μM, 10 μm, 30 μm, 100 μm, 300 μm; 1.2 μM, 6 μM, 30 μm, 150 μm of one test compound. The compound was added from low concentrations to high concentrations at 3 min intervals. […]
For orientation: In two-electrode clamp one electrode senses voltage and the other passes current.
With `C[C@@H](NC(=S)NCC(O)c1cc(O)ccc1O)c1cccc(O)c1` (some centres unmarked) [Example 112], the MED came to 0.1 µM. With `CN(Cc1ccc(O)c(O)c1)C(=S)NCCc1ccccc1` [Example 42, 1-(3,4-dihydroxybenzyl)-1-methyl-3-(2-phenylethyl)thiourea] the figure was 1 µM. With `C[C@H](NC(=S)NCCc1ccccc1)c1ccccc1` [Example 12] the figure was 10 µM; with `S=C(NCCc1ccccc1)NCCc1c[nH]c2ccccc12` [Example 7], 5 µM. Turning to `Oc1ccc(CNC(=S)NCCc2ccc(Cl)cc2)cc1O` [Example 1], the MED was found to be 1 µM. The same measure for `C[C@@H](NC(=S)N[C@H](Cc1ccccc1)C(=O)O)c1cccc(O)c1` [Example 107]: 0.3 µM. `Oc1ccc(CCNC(=S)NCc2ccccc2)cc1` [Example 17]: the MED came to 3 µM. With `C[C@@H](NC(=S)NCC(O)c1cc(Cl)ccc1O)c1cccc(O)c1` (some centres unmarked) [Example 115] the figure was 0.06 to 0.1 µM; with `CC[C@@H](NC(=S)NCCc1ccccc1O)c1ccccc1` [Example 98], 1 µM.

Take `COC(CNC(=S)NCc1ccccc1)c1ccccc1` (centres unmarked) [Example 77]: the MED came to 1 µM. The same measure for `S=C(NCCc1ccccc1)N[C@H](COCc1ccccc1)c1ccccc1` [Example 76]: 10 µM; for `S=C(NCCc1ccccc1)NCc1ccccc1` [Example 8]: 1 µM. With `S=C(NCCc1ccccc1)NCc1cccc2ccccc12` [Example 20] the figure was 3 µM; with `COC(=O)c1cc(O)ccc1NC(=S)N(C)CCc1ccccc1` [Example 119], 3 µM. With `Oc1ccc(CNC(=S)Nc2ccccc2)cc1O` [Example 46] the figure was 3 µM. Molecule `C[C@@H](NC(=S)NCC(O)c1cccc(O)c1O)c1cccc(O)c1` (some centres unmarked) [Example 111] came in with an MED of 0.06 to 0.1 µM. `C[C@@H](NC(=S)N[C@H](C)c1ccccc1)c1ccccc1` [Example 25] showed an MED of 10 µM. With `COc1cc2c(cc1OC)CN(C(=S)NCCc1ccccc1)CC2` [Example 4] the figure was 30 µM; with `COc1ccc([C@@H](C)NC(=S)NCCc2ccccc2O)cc1OC` [Example 100], 1 µM; with `S=C(CCCc1ccccc1)NCc1ccccc1` [Example 80, N-benzyl-4-phenylbutanethioamide], 10 µM.

On to `C[C@H](NC(=S)N[C@H](C)c1ccccc1)c1ccccc1` [Example 24], for which the MED stood at 3.3 µM. With `COC(=O)c1ccccc1/C=N/NC(=S)N[C@H](C)c1ccccc1` [Example 96, methyl 2-{(E)-[4-((R)-1-phenylethyl)thiosemicarbazono]methyl}benzoate] the figure was 30 µM; with `ON(Cc1ccccc1)C(=S)NCCc1ccccc1` [Example 69], 1 µM; with `C[C@@H](NC(=S)Nc1ccccc1C(=O)O)c1cccc(O)c1` [Example 118], 0.1 µM. The same measure for `COc1cc(CNC(=S)NCCc2ccccc2)cc(OC)c1` [Example 67]: 10 µM; for `COc1cccc(CCNC(=S)NCc2ccccc2)c1` [Example 60]: 10 µM. With `O=[N+]([O-])c1ccc(CNC(=S)NCCc2ccccc2)cc1` [Example 64] the figure was 30 µM. `Oc1ccccc1CCNC(=S)N[C@@H]1CCc2ccccc21` [Example 88] showed an MED of 0.6 to 1 µM.

In the case of `C[C@@H](NC(=S)NCC(O)c1ccccc1O)c1cccc(O)c1` (stereo partly drawn) [Example 105, 1-[2-(2-hydroxyphenyl)-2-hydroxyethyl]-3-[(R)-1-(3-hydroxyphenyl)ethyl]thiourea], the MED lay within 0.06 to 0.1 µM.

Take `S=C(NCCc1ccccc1)NCC12CC3CC(CC(C3)C1)C2` [Example 32]: the MED came to 10 µM. With `N#Cc1ccc(CNC(=S)NCCc2ccccc2)cc1` [Example 65] the figure was 3.3 µM; with `CN(CCc1ccccc1)C(=S)Nc1ccccc1C(=O)O` [Example 38], 0.1 µM; with `O[C@@H](CNC(=S)NCc1ccccc1)c1ccccc1` [Example 71], 1 µM. The same measure for `S=C(NCCc1ccccc1)NCc1ccc2c(c1)OCO2` [Example 26]: 3.3 µM; for `OC[C@@H](Cc1ccccc1)NC(=S)NCc1ccccc1` [Example 52]: 1 µM.

Source of the values: patent US20140004243A1, “SALTY TASTE ENHANCER” (AJINOMOTO CO., INC., priority 2011, published 2014).
